Like-named read-outs stand apart in the source and are kept apart here.
Assays:
[1] = in vivo; cited from earlier work
[2] = Tissue distribution following oral administration in rats (prodrug and metabolite levels in liver and blood); format: in vivo; details: rat, 1 hour after oral administration, 5 mg/kg
Method: The liver specificity of the disclosed compounds is compared relative to a corresponding active compound in the liver and other organs that could be targets of toxicity.
Reference compounds and the cyclic deoxyribonucleotide compounds are administered at 5-50 mg/kg to fasted rats by oral gavage. Plasma concentrations of the metabolites, and parent compounds in circulation and in the hepatic portal vein are determined by HPLC-UV, and the liver, small intestine, and other organ concentrations are measured by LC-MS using the standard chromatography method.

[3] = prodrug level in blood, read-out: Drug blood
[4] = prodrug level in liver, read-out: Drug liver

concentration at 1 h [2, 3] [ng/mL] | concentration at 1 h [2, 4] [ng/g] | Structure (SMILES) | biological half-life [1] [minutes]
 |  | O=c1[nH]cc(F)c(=O)[nH]1 [5-Fluorouracil] | ~16
2.7 | 9.3 | CCCOC(=O)c1ccccc1COP1(=O)OC[C@H]2O[C@@H](n3cc(F)c(=O)[nH]c3=O)C[C@@H]2O1 (stereo partly drawn) [Compound 126, Propyl 2-((((4aR,6R,7aS)-6-(5-fluoro-2,4-dioxo-3,4-dihydropyrimidin-1(2H)-yl)-2-oxidotetrahydro-4H-furo[3,2-d][1,3,2]dioxaphosphinin-2-yl)oxy)methyl)benzoate] | 
11 | 668 | CC(C)OC(=O)c1ccccc1COP1(=O)OC[C@H]2O[C@@H](n3cc(F)c(=O)[nH]c3=O)C[C@@H]2O1 (stereo partly drawn) [Compound 124, Isopropyl 2-((((4aR,6R,7aS)-6-(5-fluoro-2,4-dioxo-3,4-dihydropyrimidin-1(2H)-yl)-2-oxidotetrahydro-4H-furo[3,2-d][1,3,2]dioxaphosphinin-2-yl)oxy)methyl)benzoate] | 
